Measurements published in paper PMC9000710, “Synthesis and Hemostatic Activity of New Amide Derivatives” (Molecules, 2022).
Entries after “also recorded” stand apart in the source; their conditions may differ.

How the values were obtained:
human blood plasma [1] = test: Activated partial thromboplastin time (aPTT) clotting assay; type: biochemical
erythrocytes = test: Hemolysis assay (stability of erythrocytes); type: cell-based, human
[2] = Hemolysis assay (stability of erythrocytes); type: cell-based, human; details: male, human, heparinized whole blood diluted with saline (erythrocytes)
human blood plasma [3] = test: Prothrombin time (PT) clotting assay; type: biochemical
human blood plasma [4] = test: Clot formation and fibrinolysis (CFF) assay; type: biochemical; details: for Amax (maximum of fibrin clot absorbance at 360 nm) / VmaxC (of Fibrin Polymerization) / VmaxF (of Fibrin Clot Lysis): control plasma assumed as 100%, mean ± SD, n = 5–7; for effect on fibrin polymerization (VmaxC) in words: tested at 10, 25, 50 mg/L
In short: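 Human plasma preincubated 15 min at 37 °C with test substances (10, 25, 50 mg/L final), then mixed with thrombin (0.75 U/mL), t-PA (225 ng/mL) and 7.5 mM CaCl2 in TBS pH 7.4. Absorbance at 360 nm followed 60 min at 37 °C; VmaxC, Amax and VmaxF derived.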

human blood plasma [5] = test: Thrombin time (TT) clotting assay; type: biochemical

| SMILES | aPTT Time [% of Control] (human blood plasma [1]; c 10 mg/L) | aPTT Time [% of Control] (human blood plasma [1]; c 25 mg/L) | aPTT Time [% of Control] (human blood plasma [1]; c 50 mg/L) | hemolysis at 45 min, 5 mg/L ([2]; c 5 mg/L, 45 min) | hemolysis at 45 min, 50 mg/L ([2]; c 50 mg/L, 45 min) | hemolysis at 120 min, 50 mg/L ([2]; c 50 mg/L, 120 min) | hemolysis at 240 min, 50 mg/L ([2]; c 50 mg/L, 240 min) | PT Time [% of Control] (human blood plasma [3]; c 10 mg/L) | PT Time [% of Control] (human blood plasma [3]; c 25 mg/L) | PT Time [% of Control] (human blood plasma [3]; c 50 mg/L) | Amax (maximum of fibrin clot absorbance at 360 nm) (human blood plasma [4]; 10 mg/L) | VmaxC (of Fibrin Polymerization) (human blood plasma [4]; 10 mg/L) | VmaxF (of Fibrin Clot Lysis) (human blood plasma [4]; 10 mg/L) | Amax (maximum of fibrin clot absorbance at 360 nm) (human blood plasma [4]; 25 mg/L) | VmaxC (of Fibrin Polymerization) (human blood plasma [4]; 25 mg/L) | VmaxF (of Fibrin Clot Lysis) (human blood plasma [4]; 25 mg/L) | Amax (maximum of fibrin clot absorbance at 360 nm) (human blood plasma [4]; 50 mg/L) | VmaxC (of Fibrin Polymerization) (human blood plasma [4]; 50 mg/L) | VmaxF (of Fibrin Clot Lysis) (human blood plasma [4]; 50 mg/L) | effect on fibrin polymerization (VmaxC) in words (human blood plasma [4]) | other results |
| --- | --- | --- | --- | --- | --- | --- | --- | --- | --- | --- | --- | --- | --- | --- | --- | --- | --- | --- | --- | --- | --- |
| Cl.NCCCCCC(=O)NCC(=O)O [Amide 1, 2-(6-Aminohexanamido)acetic acid hydrochloride] | 108.3 ± 11.9 % of Control | 105.1 ± 7.7 % of Control | 101.9 ± 9.3 % of Control | 0% | 0.5% | 0.18% | 0.35% | 96.3 ± 2.5 % of Control | 95.0 ± 2.9 % of Control | 95.7 ± 2.2 % of Control | 105.98 ± 4.31 % | 106.12 ± 4.28 % | 99.08 ± 9.93% | 107.24 ± 8.91% | 105.66 ± 6.27% | 87.32 ± 20.27% | 104.62 ± 9.46% | 104.20 ± 3.85 % | 95.58 ± 15.97% | Mild pro-coagulant effects | aPTT, effect versus control in words (human blood plasma [1]; tested at 10, 25, 50 mg/L): not statistically significant; Hemolysis [%] (erythrocytes; c 500 mg/L, 45 min): 0.27%; Hemolysis [%] (erythrocytes; c 500 mg/L, 120 min): 0.59%; Hemolysis [%] (erythrocytes; c 500 mg/L, 240 min): 0.58%; hemolysis at 120 min, 500 mg/L ([2]; c 500 mg/L, 120 min): 0.56%; hemolysis at 240 min, 500 mg/L ([2]; c 500 mg/L, 240 min): 0.42%; prothrombin time, effect versus control in words (human blood plasma [3]; at all concentrations (10, 25, 50 mg/L)): significantly decreased; fibrinolytic activity (VmaxF), effect in words (human blood plasma [4]; 50 µg/mL): no statistically significant effect; TT Time [% of Control] (human blood plasma [5]; c 10 mg/L): 95.9 ± 6.3 % of Control; TT Time [% of Control] (human blood plasma [5]; c 25 mg/L): 96.1 ± 6.8 % of Control; TT Time [% of Control] (human blood plasma [5]; c 50 mg/L): 94.3 ± 8.3 % of Control |
| Cl.NCC(=O)NCCCCCC(=O)O [Amide 8, 6-(2-Aminoacetamido)hexanoic acid hydrochloride] | 95.1 ± 7.5 % of Control | 97.7 ± 5.9 % of Control | 95.2 ± 7.3 % of Control | 0.08% | 0.44% | 0.71% | 0.36% | 93.0 ± 2.2 % of Control | 95.5 ± 4.3 % of Control | 97.2 ± 3.2 % of Control | 104.83 ± 2.83 % | 101.96 ± 6.62% | 82.96 ± 12.49 % | 100.18 ± 3.77% | 100.98 ± 6.60% | 96.07 ± 14.56% | 108.64 ± 11.94% | 105.67 ± 8.34% | 66.90 ± 23.22 % | did not influence | Hemolysis [%] (erythrocytes; c 50 mg/L, 240 min): 0.3%; hemolysis at 120 min, 5 mg/L ([2]; c 5 mg/L, 120 min): 0.74%; hemolysis at 45 min, 50 mg/L ([2]; c 50 mg/L as printed in the third concentration block of amides 7 and 8, 45 min): 0%; hemolysis at 120 min, 50 mg/L ([2]; c 50 mg/L as printed in the third concentration block of amides 7 and 8, 120 min): 0.47%; hemolysis at 240 min, 50 mg/L ([2]; c 50 mg/L as printed in the third concentration block of amides 7 and 8, 240 min): 0.37%; melting point: 120 to 123 °C; prothrombin time, effect versus control in words (human blood plasma [3]; concentration not specified (10, 25, 50 mg/L tested)): slightly but statistically significantly reduced; prothrombin time, effect versus control in words (human blood plasma [3]; lowest concentration (10 mg/L)): fell only slightly; also recorded: most effectively lowered; TT Time [% of Control] (human blood plasma [5]; c 10 mg/L): 100.0 ± 7.0 % of Control; TT Time [% of Control] (human blood plasma [5]; c 25 mg/L): 94.3 ± 1.3 % of Control; TT Time [% of Control] (human blood plasma [5]; c 50 mg/L): 92.4 ± 5.2 % of Control; TT, effect versus control in words (human blood plasma [5]; c = 25, and 50 mg/L): shorter TT than the control sample |
